Laboratory results: patent US8951999B2, “Compounds” (Orexo AB, priority 2009, dated 2015)

target: T1, recombinant human mPGES-1 (Homo sapiens, UniProt O14684); test: Assay A: mPGES-1 enzyme assay (HTRF detection of PGE2); assay type: biochemical; settings: biological assay A (compounds 1-41, 54, 55, 62, 73); PGE2 formation from PGH2, HTRF; read-out: mPGES-1 inhibitory effect IC50
T1 sequence (O14684 1-152): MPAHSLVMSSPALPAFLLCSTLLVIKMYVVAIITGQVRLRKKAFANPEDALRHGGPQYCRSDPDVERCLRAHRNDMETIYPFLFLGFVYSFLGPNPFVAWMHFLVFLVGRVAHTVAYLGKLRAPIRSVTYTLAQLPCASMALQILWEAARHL
Text: Assay A: mPGES-1 Enzyme Assay
The basis of the assay used is to measure the inhibition of microsomal prostaglandin E2 synthase-1 (mPGES-1) dependent prostaglandin (PG) E2 formation from PGH2 by different compounds. Thus, the formation of PGE2 is used as signal and a lowering of this signal can be interpreted as inhibition of mPGES-1. Similar assays to measure inhibition of mPGES-1 have previously been described in the literature.
• Glutathione (Sigma, G-4251) • Freeze culture in Rosetta E coli expression strain. • LB growth media with Ampillicillin (Amp) final concentration in culture 50 μg/mL • Chloroamphenicol stock 34 mg/mL (chloro) final concentration in culture 34 μg/mL • Sterile growth flasks for 500 mL-1 liter cultures • 0.1 M KPi buffer pH 7.4 • 9.25% HCl • PGH2 (0.25 mM) • Fe (II) Cl2 tetrahydrate, 99% (Sigma, 220229) • 384-well plate with compounds • 96-well plate, polypropylene (Thermo fast 96 skirted VWR) • 384-well plate polypropylene PCR plate (Greiner 785201) • Greiner 384-well plate pp (In vitro cat. no. 781280) • Adhesive sealing film for 96-well plates (Sigma-Aldrich) • Aluminium foil (PCR foil, 310-0030-127-471 from Labora) • PBS (GIBCO 14040) • Prostaglandin E2 Assay (Cisbio, cat. no. 62P2APEC) • Biomek FX robot (Beckman Coulter) • Biomek NX robot (Beckman Coulter) • Multidrop; micro or combi (ThermoLabsystems) • Plate reader: Safire2 (Tecan)
Microsomes from Rosetta E. coli bacteria expressing recombinant human mPGES-1 can be derived as described below:
Inoculate 5 mL LB with Amp and Chloro with bacteria from freeze culture. Incubate over night at 37° C. with 200 rpm. Thereafter, inoculate 500-800 mL LB containing Amp and Chloro with the 5 mL on culture and grow to OD640 of 0.6-0.8. Chill the culture to +4° C. before induction. Induce the culture with IPTG at a final concentration of 400 μM. Express the protein at room temp 18-23° C. with 200 rpm shaking over night.
The following steps can be performed on the following day: • 1. Spin down the cells in 250 mL centrifuge flasks for 15 min at 7000 rpm • 2. Dissolve the pellet from 250 mL culture in 12.5 mL homogenization buffer • 3. Disintegrate the cells by sonication, 4×10 seconds at 35% amplitude • 4. Add 2.5 mL MgCl2 (100 mM) and DNase 12.5 μL (0.8 mg/mL) and incubate on ice for 30 min • 5. Spin down the bacteria debris and save the supernatant, 7000 rpm for 15 min • 6. Isolate the protein containing membranes in the supernatant by ultracentrifugation 45000×g for 1 hour. • 7. Discard the supernatant and dissolve the pellet in 20 mM KPi buffer and aliquot the enzyme and store aliquots at −80° C.
Before each experiment is performed an aliquot of the enzyme is thawed and it can then be dissolved in 0.1 M KPi pH 7.4 buffer containing 2.5 mM GSH. 50 μL of this enzyme solution is subsequently dispensed in a 384-well plate at room temperature. 0.5 μL of the inhibitor dissolved in DMSO is thereafter added to each well and incubated for 25 minutes at room temperature. Subsequently, 2 μL of PGH2 dissolved in an appropriate solvent is added to each well and after one minute at room temperature, the acidified stop solution containing FeCl2 is added. 4 μL of the total volume is transferred to a separate plate and diluted 750-fold in two separate steps before quantification of PGE2.
In order to quantitate the amount of PGE2 that has been formed, a homogenous time resolved fluorescent (HTRF) detection of PGE2 can be performed by the use of a commercially available kit from CisBio essentially according to the manufacturer's protocol. […]

Row | Structure (SMILES) | IC50 [nM]
1 | COc1ccc(NC(=O)c2cc(CNC(=O)C3(O)CC3)ccc2Cl)cc1C(=O)Nc1ccc(Br)cc1 [Example 28] | 4
2 | CC(C)(C)C(=O)NCc1ccc(Cl)c(C(=O)Nc2ccc(OCC(F)F)c(C(=O)N[C@H]3CC[C@H](C(F)(F)F)CC3)c2)c1 [Example 5, N-[4-(2,2-Difluoroethyl)oxy-3-[trans-(4-trifluoromethyl-cyclohexyl)amino]carbonyl-phenyl]-2-chloro-5-(tert-butylcarbonylamino)methyl-benzamide] | 2
3 | CCC(C)(CC)C(=O)NCc1ccc(Cl)c(C(=O)Nc2ccc(OC)c(C(=O)Nc3ccc(Br)cc3)c2)c1 [Example 34] | 2
4 | COc1ccc(NC(=O)c2cc(CNC(=O)C3CCCCC3C)ccc2Cl)cc1C(=O)Nc1ccc(Br)cc1 (centres unmarked) [Example 29] | 2
5 | COc1ccc(NC(=O)c2cc(CNC(=O)C(C)(C)C)ccc2Cl)cc1C(=O)NCc1ccccc1C(F)(F)F [Example 16] | 14
6 | O=C(Nc1ccc(Cl)c(C(=O)NC2CC2)c1)c1cc(CNC(=O)C2CC2)ccc1Cl [Example 21] | ~1800
7 | COc1ccc(NC(=O)c2cc(CNC(=O)c3c(F)ccc(F)c3Cl)ccc2Cl)cc1C(=O)Nc1ccc(Br)cc1 [Example 23] | 1
8 | COc1ccc(NC(=O)c2cc(CNC(=O)C(C)(C)C)ccc2Cl)cc1C(=O)N[C@H]1CC[C@H](C(C)(C)C)CC1 [Example 18] | 2
9 | COc1ccc(NC(=O)c2cc(CNC(=O)C3(C(F)(F)F)CC3)ccc2Cl)cc1C(=O)Nc1ccc(Br)cc1 [Example 31] | 2
10 | COc1ccc(NC(=O)c2cc(CNC(=O)C(C)(F)F)ccc2Cl)cc1C(=O)Nc1ccc(Br)cc1 [Example 30] | 1
11 | CC(C)(C)C(=O)NCc1ccc(Cl)c(C(=O)Nc2ccc(OCC(F)F)c(C(=O)NCC3CCC3)c2)c1 [Example 12] | 3
12 | CC(C)(C)C(=O)NCc1ccc(Cl)c(C(=O)Nc2ccc(Cl)c(C(=O)NC3CC3)c2)c1 [Example 20] | ~3000
13 | COc1ccc(NC(=O)c2cc(CNC(=O)C(C)(C)C)ccc2Cl)cc1C(=O)NC1CC1 [Example 35] | ~500
14 | COc1ccc(NC(=O)c2cc(CNC(=O)C(C)(C)C)ccc2Cl)cc1C(=O)Nc1cc(C(F)(F)F)ccn1 [Example 8, N-[4-Methoxy-3-(4-trifluoromethyl-pyridin-2-yl)aminocarbonyl-phenyl]-2-chloro-5-(tert-butylcarbonylamino)methyl-benzamide] | 7
